Measured values reported in patent US20250032456A1, “USE OF L-ERGOTHIONEINE TO AMELIORATE AND PREVENT AGE-RELATED VITREOUS DEGENERATION” (NANJING NUTRABUILDING BIO-TECH CO., LTD., priority 2021, published 2025).

What was measured:
rabbits' vitreous gel [1] = assay: Slit-lamp biomicroscopy of vitreous structure in rabbits with riboflavin/white-light induced vitreous liquefaction; assay type: in vivo, rabbit; settings: 2 or 10 mg/kg/d by gavage once daily for 7 months, especially in higher dose
Protocol: Fifteen young pigmented rabbits weighing 2.3-4.1 kg and aging 2.5-3 years were used in this experiment. At the onset of the investigation, each eye of every rabbit was examined by slit-lamp biomicroscopy and +60 diopter fundus lens through dilated pupils (2% atropine eye drops) to exclude any preexisting abnormalities. After slit-lamp examination, one drop of 0.5% proparacaine hydrochloride was applied for topic anesthesia, and then 0.1 ml of riboflavin (2×10^^−4 M) was injected through a Millipore filter unit into the central vitreous of both eyes, using a 30-gauge needle. All eyes were then irradiated with white light (1.06×10^15 photons sec-1 cm-2) generated by a carousel slide projector without a lens at a distance of 60 cm for 6 hours. During irradiation, the exposed eyes were frequently treated with topical balanced salt solution (BSS) to prevent corneal drying. Their eyes were examined by using slit-lamp biomicroscopy next day, to confirm if they have serious vitreous liquefaction. They were randomly divided into three groups: (1) non-supplement group (Con, n=5); (2) L-ergothioneine supplement group with low dosage (L-ergothioneine, 2 mg/kg/d, n=5); (3) L-ergothioneine supplement group with high dosage (L-ergothioneine, 10 mg/kg/d, n=5). Some […] were administered L-ergothioneine once daily by gavage in normal saline solution for 7 months. […]

rabbits' vitreous gel [2] = assay: Vitreous gel content by gel-liquid separation of rabbit vitreous samples; assay type: in vivo; settings: 2 or 10 mg/kg/d by gavage for 7 months; compared with non-supplement group, ***p<0.001
Protocol: Fifteen young pigmented rabbits weighing 2.3-4.1 kg and aging 2.5-3 years were used in this experiment. At the onset of the investigation, each eye of every rabbit was examined by slit-lamp biomicroscopy and +60 diopter fundus lens through dilated pupils (2% atropine eye drops) to exclude any preexisting abnormalities. After slit-lamp examination, one drop of 0.5% proparacaine hydrochloride was applied for topic anesthesia, and then 0.1 ml of riboflavin (2×10^^−4 M) was injected through a Millipore filter unit into the central vitreous of both eyes, using a 30-gauge needle. All eyes were then irradiated with white light (1.06×10^15 photons sec-1 cm-2) generated by a carousel slide projector without a lens at a distance of 60 cm for 6 hours. During irradiation, the exposed eyes were frequently treated with topical balanced salt solution (BSS) to prevent corneal drying. Their eyes were examined by using slit-lamp biomicroscopy next day, to confirm if they have serious vitreous liquefaction. […] The weight of the vitreous gel was determined, and its percentage was calculated as follows: vitreous gel (%)=(separated vitreous gel wet wt (g)/initial vitreous wet wt (g))×100%.

[3] = test system: Reactive oxygen species (ROS) of rabbits' lens; assay: Reactive oxygen species quantified by fluorescence spectroscopy using 2',7'-dichlorofluorescein diacetate; assay type: in vivo, rabbit; settings: 2 or 10 mg/kg/d by gavage for 7 months; compared with non-supplement group, ***p<0.001
Protocol: Fifteen young pigmented rabbits weighing 2.3-4.1 kg and aging 2.5-3 years were used in this experiment. At the onset of the investigation, each eye of every rabbit was examined by slit-lamp biomicroscopy and +60 diopter fundus lens through dilated pupils (2% atropine eye drops) to exclude any preexisting abnormalities. After slit-lamp examination, one drop of 0.5% proparacaine hydrochloride was applied for topic anesthesia, and then 0.1 ml of riboflavin (2×10^^−4 M) was injected through a Millipore filter unit into the central vitreous of both eyes, using a 30-gauge needle. All eyes were then irradiated with white light (1.06×10^15 photons sec-1 cm-2) generated by a carousel slide projector without a lens at a distance of 60 cm for 6 hours. During irradiation, the exposed eyes were frequently treated with topical balanced salt solution (BSS) to prevent corneal drying. […]
Antioxidant capacity of the lens was measured using an assay based on the ability of the sample to inhibit the oxidation of 2,2′-azino-di-[3-ethylbenzthiazoline sulfonate]+ (ABTS) by metmyoglobin. The amount of ABTS+ produced was measured in terms of the decrease in absorbance caused by the antioxidants in the sample. Reactive oxygen species (ROS) were quantified by fluorescence spectroscopy using 2′,7′-dichlorofluorescein diacetate.

## C[N+](C)(C)[C@@H](Cc1c[nH]c(=S)[nH]1)C(=O)[O-] [L-ergothioneine]
rabbits' vitreous gel [1]
  rabbits' vitreous gel observed microscopically (slit-lamp biomicroscopy): significantly increased
rabbits' vitreous gel [2]
  vitreous gel content (%) of the rabbits' eye (FIG. 1): could alleviate vitreous depolymerization and liquefaction
[3]
  ROS value of rabbits' lens (FIG. 2): could scavenge chronic ROS directly and radically
